Measurements published in paper PMC4624765, “C-di-GMP Regulates Motile to Sessile Transition by Modulating MshA Pili Biogenesis and Near-Surface Motility Behavior in Vibrio cholerae” (PLoS Pathogens, 2015).

How the values were obtained:
[1] = target: T1, MshE (Vibrio cholerae, UniProt Q9KUV7); assay: fluorescence thermal shift (SYPRO Orange); format: binding; design: gene VC_0405; full-length, expressed in E. coli BL21, purified on GST column with glutathione elution; conditions: 25 mM Tris-HCl pH 7.5, 100 mM NaCl, 0.2 mM MgCl2
T1 sequence (Q9KUV7 1-575): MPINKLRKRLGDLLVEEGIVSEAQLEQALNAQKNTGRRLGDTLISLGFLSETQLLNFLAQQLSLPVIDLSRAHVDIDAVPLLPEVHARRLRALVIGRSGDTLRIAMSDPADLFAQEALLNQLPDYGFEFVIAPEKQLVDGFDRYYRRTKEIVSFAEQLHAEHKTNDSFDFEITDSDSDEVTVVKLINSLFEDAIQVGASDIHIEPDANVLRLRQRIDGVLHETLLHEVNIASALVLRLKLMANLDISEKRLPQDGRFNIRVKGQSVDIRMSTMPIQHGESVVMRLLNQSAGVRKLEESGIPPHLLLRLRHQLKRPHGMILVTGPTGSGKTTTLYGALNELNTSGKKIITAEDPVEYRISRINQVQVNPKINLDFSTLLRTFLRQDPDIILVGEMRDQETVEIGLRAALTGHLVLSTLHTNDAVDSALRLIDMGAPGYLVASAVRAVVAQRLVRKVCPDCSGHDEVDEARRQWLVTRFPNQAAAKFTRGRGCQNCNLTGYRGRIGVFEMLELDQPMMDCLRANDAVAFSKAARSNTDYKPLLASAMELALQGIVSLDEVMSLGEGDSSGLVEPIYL

[2] = target: T2, MshE N-terminal domain (Vibrio cholerae, UniProt Q9KUV7); assay: fluorescence thermal shift (SYPRO Orange); format: binding; conditions: 25 mM Tris-HCl pH 7.5, 100 mM NaCl, 0.2 mM MgCl2
T2 construct: gene VC_0405; N-terminal domain, residues 1-180, expressed in E. coli BL21
T2 sequence (Q9KUV7 1-180 limits assumed): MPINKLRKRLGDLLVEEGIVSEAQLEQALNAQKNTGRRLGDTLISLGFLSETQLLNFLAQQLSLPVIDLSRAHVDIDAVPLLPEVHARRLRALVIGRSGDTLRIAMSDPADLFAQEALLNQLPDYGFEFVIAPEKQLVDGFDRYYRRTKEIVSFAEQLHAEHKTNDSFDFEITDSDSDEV

[3] = target: T3, VpsT (Vibrio cholerae, UniProt Q9KKZ8); assay: biochemical
T3 construct: gene VC_A0952

[4] = target: T1, MshE; assay: biochemical; design: gene VC_0405

| Structure (SMILES) | Tm with 2 mM ligand [1] | Tm with 2 mM ligand [2] | Kd [3] | Kd [4] |
| --- | --- | --- | --- | --- |
| Nc1ncnc2c1ncn2[C@@H]1O[C@H](COP(=O)(O)OP(=O)(O)OP(=O)(O)O)[C@@H](O)[C@H]1O [ATP] | 40.15 ±1.02 °C | – | – | – |
| Nc1nc2c(ncn2[C@@H]2O[C@@H]3COP(=O)(O)O[C@H]4[C@@H](O)[C@H](n5cnc6c(=O)[nH]c(N)nc65)O[C@@H]4COP(=O)(O)O[C@H]3[C@H]2O)c(=O)[nH]1 [c-di-GMP] | 42.77±0.70 °C | 70.18 ±0.55 °C | 10.1 µM | 8.77 µM |
